Results published in patent US12016355B2, “Stevia composition” (PURECIRCLE SDN BHD, priority 2011, dated 2024).
Like-named read-outs stand apart in the source and are kept apart here.

Key:
[1] = Sweetness factor (SF) determination by trained panel in water; settings: for Calculated SF (sweetness factor) / Usage Level, % (concentration corresponding to 5% sucrose equivalent sweetness): in water, 5% SE
Protocol: The sweetness factors for different sweetener from all major groups were measured by tasting several concentrations of each sweetener in water by trained panel. From the sensory test at a, the concentration (%) that corresponds to the 5% sucrose equivalent (SE) sweetness were estimated and listed in Table 2. The sweetness equivalent (SE) of high intensity sweeteners (HIS) varies according to the target sugar equivalent sweetness levels, that are tested as shown in Table 3.

[2] = Descriptive sensory evaluation, lime-tequila margarita alcoholic beverage; settings: FOS 21% + Reb B 150 ppm, about 10% alcohol
Protocol: The Fructo-oligosaccharide (FOS) sweetener and the steviol glycosides compositions (described in EXAMPLE 12) were used for making an alcoholic beverage—lime-tequila margarita drink using Margarita pre-mix from FIS (Flavor International Systems), recommended usage was 0.4%. Prepared Lime Tequila Margarita blank containing about 10% alcohol, no sugar added. To sweeten the beverage, used FOS (21%), FOS+Reb B (150 ppm), and FOS+Reb A/Reb B (68 ppm). Descriptive Sensory evaluation was conducted with 8-13 panelists.

[3] = Sugar equivalent sweetness of sweetener/Reb B combinations in plain water, trained panel; settings: Reb B at 50, 150 and 300 ppm with sweeteners of Table 2
Protocol: In one embodiment, Reb B was combined (at 50, 150 and 300 ppm) with several sweeteners listed in Table 2 to make solutions in plain water. Some of the sweeteners were tested at two different concentrations to obtain around 2% sugar equivalent sweetness without any Reb B. A trained panel conducted sensory tests to determine the effect of the addition of different amounts of Reb B to each sweetener on overall sweetness quality and intensity as shown in Table 4.

[4] = Descriptive sensory evaluation, peppermint mouthwash, 8 panelists; settings: Maltitol 6.44% + Reb B 50 or 150 ppm
Protocol: A commercial unsweetened (no sugar or sweetener) peppermint mouthwash product (Brand: The Natural Dentist) was used to determine the effect of Reb B with other sweetener, as example maltitol, a sugar alcohol on the sensory profile of mouthwash. Mouthwash samples were sweetened with Maltitol (6.44%), Maltitol+Reb B (50 ppm), Maltitol+Reb B (150 ppm). Descriptive sensory evaluation was conducted with 8 panelists. They evaluated several attributes including sweet onset, total sweetness, bitterness, rounded sweetness, flavor intensity, astringency, mouth coating, sweet lingering, bitter lingering, aftertaste mouth coating, tartness.

[5] = room temperature; reported values; cited from earlier work
[6] = Descriptive sensory evaluation of sweetener solutions in water by trained panel
Protocol: In another embodiment, Stevia sweetener (Reb A, Reb B or blends thereof) solutions were made by completely dissolving Stevia into distilled water. Solutions were tasted and evaluated by a trained panel. […] All solutions were made with different mass ratio of Reb A and Reb Bas shown in FIG. 3 to get the 7% sweetness equivalent. Reb B a mount varied between 20 mg/kg to 150 mg/kg.
All sensory attributes were rated by trained panelists on a scale of zero (0) to ten (10). Samples were presented in a randomized fashion and labeled with three-digit codes.
Sweet Onset—This attribute describes the time at which panelists perceived sweetness upon placing the sample in the mouth. A score of zero indicates immediate identification of sweetness, whereas a score of ten indicates a long delay in the time that sweetness was perceived.
Total Sweetness—This attribute describes the highest intensity of sweetness perceived during tasting. A score of zero indicates no sweetness, while a score of ten indicates very high sweetness.
Bitterness—This attribute describes the highest intensity of bitterness perceived during tasting. A score of zero indicates no bitterness, while a score of ten indicates very high bitterness.
Rounded Sweetness—This attribute describes the duration of sweetness while samples are in the mouth.
Flavor Intensity—This attribute describes the highest intensity of flavor perceived during tasting. A score of zero indicates no flavor, while a score of ten indicates very high flavor.
Astringency—This attribute describes the highest intensity of astringency perceived during tasting. A score of zero indicates no astringency, while a score of ten indicates very high astringency.
Mouth Coating—This attribute describes the highest intensity of sweetness coating perceived while samples are in the mouth.
Sweet Lingering—This attribute describes the highest intensity of sweetness perceived after the sample has been swallowed.
Bitter Lingering—This attribute describes the highest intensity of bitterness perceived after the sample has been swallowed.
Aftertaste Mouth Coating—This attribute describes the highest intensity of sweetness coating perceived after the sample has been swallowed.
Tartness—This attribute describes the highest intensity of tartness perceived during tasting. A score of zero indicates no tartness, while a score of ten indicates very high tartness.
Cooling Sensation—This attribute describes the highest intensity of cooling sensation perceived during tasting. A score of zero indicates no cooling sensation, while a score of ten indicates very high cooling sensation.
Water solution of mogroside (100 ppm) sweetener was tested against solutions made with mogroside (100 ppm)+Reb B (300 ppm) and mogroside (100 ppm)+Reb A/B (Example 3) blend (128 ppm) by a 13 members trained panel.
Water solution of sucralose (40 ppm) was tested against solutions made with sucralose (40 ppm)+Reb B (150 ppm) and sucralose (40 ppm)+Reb A/Reb B (Example 3) blend (68 ppm) by a 13 members trained panel.
Water solution of erythritol (5%) was tested against solutions made with erythritol (5%)+Reb B (50 ppm) and erythritol (5%)+Reb A/Reb B (Example 3) blend (22 ppm) by a 13 members trained panel.
Fructo-oligosaccharide or FOS solution (21%) was tested against solutions made with FOS (21%)+Reb B (150 ppm) and FOS (21%)+Reb A/Reb B (Example 3) blend (68 ppm) by a 13 members trained panel.

[7] = assay type: physicochemical
Protocol: Hereinafter, unless specified otherwise the solubility of material is determined in reverse osmosis (RO) water at room temperature. Where the solubility is expressed as “%” it to be understood as number of grams of material soluble in 100 grams of solvent.
The temperature was increased at 1° C. per minute to 121° C. The mixture was maintained at 121° C. for 1 hour and then the temperature was decreased to 80° C., at 1° C. per minute, and the obtained solution was spray dried using YC-015 laboratory spray drier (Shanghai Pilotech Instrument & Equipment Co. Ltd., China) operating at 175° C. inlet and 100° C. outlet temperature. Solution was maintained at 80° C. to prevent premature crystallization.
Solubility were evaluated for Reb A, Reb B, mechanical blends of Reb A and Reb B powders of different ratios, and mixtures of Reb A and Reb B prepared according to process described in EXAMPLE 1.

[8] = cited from earlier work
[9] = Trained panel evaluation, no fat (NF) yogurt; settings: formulas of Table 6
Protocol: Samples were prepared according to formulas outlined below in Table 6. Samples included a full sugar reference, an aspartame reference, a Reb A control and several test samples with a Reb A/Reb B blends. The samples were evaluated by a trained panel and screened for overall sweetness, bitterness, astringency, mouth coating, flavor intensity, acidity/tartness, sweet lingering and bitter lingering.

[10] = Chang and Cook 1983; cited from earlier work
[11] = Trained panel evaluation, chocolate milk; settings: sugar-equivalent sweetness around 5.5%
Protocol: A series of samples were prepared to having sugar-equivalent sweetness around 5.5%. The control sample was sweetened with 5.5% sugar the test samples were sweetened with different ratios of Reb A/Reb as shown in Table 7 below. The samples were evaluated by a trained panel and screened for overall sweetness, bitterness, astringency, mouth coating, flavor intensity, acidity/tartness, sweet lingering and bitter lingering.

[12] = sensory evaluations, Crammer and Ikan 1986

| Structure (SMILES) | Sweetness factor ([1]; SE level 5.0%) | Sweetness factor ([1]; SE level 7.5%) | Sweetness factor ([1]; SE level 10.0%) | Sweetness factor ([1]; SE level […]) | Calculated SF (sweetness factor) [1] | Usage Level, % (concentration corresponding to 5% sucrose equivalent sweetness) [1] | water solubility [5] | times sweeter than sucrose [8, 12] | stability in carbonated beverages [10] | other results |
| --- | --- | --- | --- | --- | --- | --- | --- | --- | --- | --- |
| C=C1C[C@@]23CC[C@H]4[C@@](C)(CCC[C@@]4(C)C(=O)O)[C@@H]2CC[C@]1(O[C@@H]1O[C@H](CO)[C@@H](O)[C@H](O[C@@H]2O[C@H](CO)[C@@H](O)[C@H](O)[C@H]2O)[C@H]1O[C@@H]1O[C@H](CO)[C@@H](O)[C@H](O)[C@H]1O)C3 [Reb B, Rebaudioside B] | 126 | 95 | 59 | 146 | 126 | 0.0397% | about 0.1% | 300-350 times |  | flavor intensity, bitter lingering and tartness [2]: decrease in flavor intensity, bitter lingering, and tartness; sweetness profile of the alcoholic beverage [2]: sweetness onset was earlier in the profile, and there was an increase in total sweetness and the sweetness profile was more rounded; effect of addition of Reb B on overall sweetness quality and intensity [3]: generally increased upfront sweetness, made the sweetness profile rounded and contributed to sweetness lingering at a higher level; all other sensory attributes [4]: generally unchanged; sweetness onset and total sweetness [4]: created an earlier sweetness onset, and higher total sweetness; sweetness and sweetness profile versus FOS solution ([6]; FOS 21% + Reb B 150 ppm or Reb A/Reb B 68 ppm): significantly higher sweetness and made the sweetness profile rounded; onset of sweetness, peak sweetness and sweetness lingering versus erythritol solution ([6]; water, erythritol 5% + Reb B 50 ppm): improved the onset of sweetness and the peak sweetness without increasing the sweetness lingering; taste (sweetness, bitterness, cooling effect) versus erythritol solution ([6]; water, erythritol 5% + Reb B 50 ppm or Reb A/Reb B 22 ppm): improved the taste of erythritol sample significantly by increasing the sweetness and reducing the bitterness and cooling effect; taste attributes versus mogroside solution ([6]; water, mogroside 100 ppm + Reb B 300 ppm or Reb A/B 128 ppm): increases sweetness level significantly, improves the onset of sweetness and decreases the bitterness; onset of sweetness and off taste versus sucralose solution ([6]; water, sucralose 40 ppm + Reb B 150 ppm): improved the onset of sweetness and decreased the off taste slightly; sweetness level versus sucralose solution ([6]; water, sucralose 40 ppm + Reb B 150 ppm or Reb A/Reb B 68 ppm): significantly higher sweetness level; Solubility in water [7]: No* |
| C=C1C[C@@]23CC[C@H]4[C@@](C)(CCC[C@@]4(C)C(=O)O[C@@H]4O[C@H](CO)[C@@H](O)[C@H](O)[C@H]4O)[C@@H]2CC[C@]1(O[C@@H]1O[C@H](CO)[C@@H](O)[C@H](O[C@@H]2O[C@H](CO)[C@@H](O)[C@H](O)[C@H]2O)[C@H]1O[C@@H]1O[C@H](CO)[C@@H](O)[C@H](O)[C@H]1O)C3 [Reb A, Rebaudioside A] | 290 | 250 | 200 | 400 | 291 | 0.0172% | 0.8% | 350-450 times | heat and pH stability | acidity [9]: enhanced the acidity of the yogurt; bitterness [9]: bitterness at the end; sweetness and flavor profile [11]: separate peaks for sweetness, dairy notes, and cocoa notes; water solubility [7]: around 1%; sensory attributes among major steviol glycosides ([8]; Tanaka 1987, Phillips 1989): the least astringent, the least bitter, and the least persistent aftertaste |
| C=C1C[C@@]23CC[C@H]4[C@@](C)(CCC[C@@]4(C)C(=O)O[C@@H]4O[C@H](CO)[C@@H](O)[C@H](O)[C@H]4O)[C@@H]2CC[C@]1(O[C@@H]1O[C@H](CO)[C@@H](O)[C@H](O)[C@H]1O[C@@H]1O[C@H](CO)[C@@H](O)[C@H](O)[C@H]1O)C3 [stevioside] |  |  |  |  |  |  |  |  | heat and pH stability | times sweeter than sucrose ([8]; as usually found, literature): 110-270 times |
